From ChEMBL document CHEMBL3885881, “DrugMatrix”

Species: Rattus norvegicus
Test: DrugMatrix - Regimen: Daily Repeat
Type: toxicity, organism-based, Sprague-Dawley
Set-up: regimen Daily Repeat, gender Male, age 6-8 weeks
Details: in vivo, po, route oral GAVAGE, vehicle 100 % WATER; for ABSOLUTE BASOPHIL / ABSOLUTE EOSINOPHIL / ABSOLUTE LYMPHOCYTE / ABSOLUTE MONOCYTE / ABSOLUTE SEGMENTED NEUTROPHIL / BASOPHIL / EOSINOPHIL / ERYTHROCYTE COUNT / HEMATOCRIT / HEMOGLOBIN / LEUKOCYTE COUNT / LYMPHOCYTE / MEAN CORPUSCULAR HEMOGLOBIN / MEAN CORPUSCULAR HEMOGLOBIN CONCENTRATION / MEAN CORPUSCULAR VOLUME / MONOCYTE / NEUTROPHIL / NUCLEATED RED BLOOD CELLS / PLATELET COUNT: tissue Blood; for ALANINE AMINOTRANSFERASE / ALBUMIN / ALKALINE PHOSPHATASE / ASPARTATE AMINOTRANSFERASE / BLOOD UREA NITROGEN / CARBON DIOXIDE / CHLORIDE / CHOLESTEROL / CREATINE PHOSPHOKINASE / CREATININE / GLUCOSE / LACTATE DEHYDROGENASE / LIPASE / PHOSPHORUS / POTASSIUM / SODIUM / TOTAL BILIRUBIN / TOTAL PROTEIN / URIC ACID: tissue Plasma
[1] = 0 mg/kg, 72 h, dose level Control, time 3 day
[2] = 0 mg/kg, 120 h, dose level Control, time 5 day
[3] = 1 mg/kg, 72 h, dose level Low, time 3 day

## CN1C2CCCC1CC(NC(=O)c1nn(C)c3ccccc13)C2 (centres undefined) [GRANISETRON]
[1]
  ABSOLUTE BASOPHIL: 0 CELLS/uL
  ABSOLUTE EOSINOPHIL: 0 CELLS/uL
  ABSOLUTE LYMPHOCYTE: 8482.5 CELLS/uL
  ABSOLUTE MONOCYTE: 63.83 CELLS/uL
  ABSOLUTE SEGMENTED NEUTROPHIL: 887 CELLS/uL
  BASOPHIL: 0%
  EOSINOPHIL: 0%
  ERYTHROCYTE COUNT: 5.49 x10E6/uL
  HEMATOCRIT: 34.5%
  HEMOGLOBIN: 13.33 G/DL
  LEUKOCYTE COUNT: 9.43 x10E3/uL
  LYMPHOCYTE: 90.17%
  MEAN CORPUSCULAR HEMOGLOBIN: 24.3 pg
  MEAN CORPUSCULAR HEMOGLOBIN CONCENTRATION: 38.63 G/DL
  MEAN CORPUSCULAR VOLUME: 62.88 fL
  MONOCYTE: 0.67%
  NEUTROPHIL: 9.17%
  NUCLEATED RED BLOOD CELLS: 0.67 /100WBC
  PLATELET COUNT: 1022.83 x10E3/uL
  ALANINE AMINOTRANSFERASE: 50.5 u/L
  ALBUMIN: 4.08 G/DL
  ALKALINE PHOSPHATASE: 368.33 u/L
  ASPARTATE AMINOTRANSFERASE: 87.5 u/L
  BLOOD UREA NITROGEN: 12.83 mg/dL
  CARBON DIOXIDE: 32.83 mmol/L
  CHLORIDE: 99.67 MEQ/L
  CHOLESTEROL: 79.67 mg/dL
  CREATINE PHOSPHOKINASE: 585 u/L
  CREATININE: 0.22 mg/dL
  GLUCOSE: 135.67 mg/dL
  LACTATE DEHYDROGENASE: 171 u/L
  LIPASE: 9.5 u/L
  PHOSPHORUS: 11.18 mg/dL
  POTASSIUM: 6.25 MEQ/L
  SODIUM: 144.87 MEQ/L
  TOTAL BILIRUBIN: 0.2 mg/dL
  TOTAL PROTEIN: 6.08 G/DL
  URIC ACID: 0.65 mg/dL
[2]
  ABSOLUTE BASOPHIL: 0 CELLS/uL
  ABSOLUTE EOSINOPHIL: 14.5 CELLS/uL
  ABSOLUTE LYMPHOCYTE: 7596.17 CELLS/uL
  ABSOLUTE MONOCYTE: 69.67 CELLS/uL
  ABSOLUTE SEGMENTED NEUTROPHIL: 503 CELLS/uL
  BASOPHIL: 0%
  EOSINOPHIL: 0.17%
  ERYTHROCYTE COUNT: 5.49 x10E6/uL
  HEMATOCRIT: 34.72%
  HEMOGLOBIN: 13.47 G/DL
  LEUKOCYTE COUNT: 8.18 x10E3/uL
  LYMPHOCYTE: 92.17%
  MEAN CORPUSCULAR HEMOGLOBIN: 24.57 pg
  MEAN CORPUSCULAR HEMOGLOBIN CONCENTRATION: 38.82 G/DL
  MEAN CORPUSCULAR VOLUME: 63.3 fL
  MONOCYTE: 1%
  NEUTROPHIL: 6.67%
  NUCLEATED RED BLOOD CELLS: 0 /100WBC
  PLATELET COUNT: 1141 x10E3/uL
  ALANINE AMINOTRANSFERASE: 48.33 u/L
  ALBUMIN: 4.07 G/DL
  ALKALINE PHOSPHATASE: 395.67 u/L
  ASPARTATE AMINOTRANSFERASE: 85.67 u/L
  BLOOD UREA NITROGEN: 15.83 mg/dL
  CARBON DIOXIDE: 31.33 mmol/L
  CHLORIDE: 100.83 MEQ/L
  CHOLESTEROL: 62.33 mg/dL
  CREATINE PHOSPHOKINASE: 248.33 u/L
  CREATININE: 0.2 mg/dL
  GLUCOSE: 135.67 mg/dL
  LACTATE DEHYDROGENASE: 141.33 u/L
  LIPASE: 9.5 u/L
  PHOSPHORUS: 10.73 mg/dL
  POTASSIUM: 6.07 MEQ/L
  SODIUM: 145.35 MEQ/L
  TOTAL BILIRUBIN: 0.22 mg/dL
  TOTAL PROTEIN: 6.12 G/DL
  URIC ACID: 0.63 mg/dL
[3]
  ABSOLUTE BASOPHIL: 0 CELLS/uL
  ABSOLUTE EOSINOPHIL: 35.67 CELLS/uL
  ABSOLUTE LYMPHOCYTE: 7674 CELLS/uL
  ABSOLUTE MONOCYTE: 0 CELLS/uL
  ABSOLUTE SEGMENTED NEUTROPHIL: 690.33 CELLS/uL
  BASOPHIL: 0%
  EOSINOPHIL: 0.33%
  ERYTHROCYTE COUNT: 5.55 x10E6/uL
  HEMATOCRIT: 33.93%
  HEMOGLOBIN: 12.9 G/DL
  LEUKOCYTE COUNT: 8.4 x10E3/uL
  LYMPHOCYTE: 92%
  MEAN CORPUSCULAR HEMOGLOBIN: 23.3 pg
  MEAN CORPUSCULAR HEMOGLOBIN CONCENTRATION: 38.03 G/DL
  MEAN CORPUSCULAR VOLUME: 61.3 fL
  MONOCYTE: 0%
  NEUTROPHIL: 7.67%
  NUCLEATED RED BLOOD CELLS: 0.33 /100WBC
  PLATELET COUNT: 1023.67 x10E3/uL
  ALANINE AMINOTRANSFERASE: 49 u/L
  ALBUMIN: 4 G/DL
  ALKALINE PHOSPHATASE: 371 u/L
  ASPARTATE AMINOTRANSFERASE: 82.67 u/L
  BLOOD UREA NITROGEN: 11.67 mg/dL
  CARBON DIOXIDE: 34 mmol/L
  CHLORIDE: 99.33 MEQ/L
  CHOLESTEROL: 76.33 mg/dL
  CREATINE PHOSPHOKINASE: 380.33 u/L
  CREATININE: 0.29 mg/dL
  GLUCOSE: 141.67 mg/dL
  LACTATE DEHYDROGENASE: 138.33 u/L
  LIPASE: 12 u/L
  PHOSPHORUS: 10.8 mg/dL
  POTASSIUM: 5.77 MEQ/L
  SODIUM: 145.17 MEQ/L
  TOTAL BILIRUBIN: 0.1 mg/dL
  TOTAL PROTEIN: 5.83 G/DL
  URIC ACID: 0.57 mg/dL
